The data set can be described thus: Thermal stability of Capecitabine on heating. The note with it: heating at 90° C. during 10 hours at neutral pH. The class given is physicochemical. The procedure: The one step process for the preparation of Capecitabine disclosed in WO 2011/104540 suffers from important loses of the final product. Capecitabine suffers from thermal instability at high temperatures, and after heating the product at 90° C. during 10 hours at neutral pH, up to 40% of the product is lost. On the contrary, the enzymatic process of the invention runs at milder conditions, using water as solvent and furnishing yields higher than 70%.

For the molecule `CCCCCOC(=O)Nc1nc(=O)n([C@@H]2O[C@H](C)[C@@H](O)[C@H]2O)cc1F` [Capecitabine, N^4-pentyloxycarbonyl-5′-deoxy-5-fluorocytidine], the “product lost after heating (thermal instability)” value is “up to 40%”.
